Reference: patent US8173695B2, “Kappa selective opioid receptor antagonist” (Eli Lilly and Company, priority 2008, dated 2012)

Experiments:
P rats = assay: P rat progressive ratio responding for ethanol; assay type: in vivo; details: 10 mg/kg p.o. 60 min prior to testing, p<0.05 versus vehicle
Method: This test assesses the motivation to work for access to ethanol in P rats following ethanol abstinence. This animal model simulates ethanol craving.
Female P rats (Indiana University Medical Center, Indianapolis, Ind., USA) are pair-housed in an environmentally controlled facility and maintained on a 12 h light/dark cycle (lights on at 0600 hours).
Compounds are solubilized in sterile water by the dropwise addition of 85% lactic acid, mixed freshly prior to use, and administered in a volume of 1 mL/kg. Unless otherwise stated, compounds are administered p.o. 60 min prior to the experimental session. Doses are assigned using a counterbalanced, within-subject design (n=8-11 per experiment).
In order to reduce novelty-induced avoidance of ethanol (EtOH), the water bottle on the homecage is replaced with a bottle containing 15% EtOH (v/v; Ancare, Bellmore, N.Y.) for two days prior to operant training. Throughout the rest of the experiment, rats are allowed ad libitum access to water and standard laboratory chow in the homecage.
Daily 60-min sessions are conducted in standard rat operant chambers, housed within sound-attenuating chambers (MED Associates, Inc., St. Albans, Vt., USA). The 0.5 cm diameter stainless steel bars of the floor grid of the operant chambers are positioned approximately 1.5 cm apart. Two retractable operant levers in each operant chamber are located approximately 15 cm above the grid floor and 13 cm apart. A recessed trough is located in the space between the levers, through which a dipper cup (0.1 mL capacity) is raised to deliver response-contingent ethanol (15% EtOH, v/v). Upon a reinforced response, a stimulus light is illuminated during the 4-sec dipper cup access. Operation of the stimuli and behavioral responses are controlled and recorded by personal computer for offline analysis. At the end of each session, all stimuli are turned off and levers are retracted.
Rats are trained to press a lever for EtOH reinforcement. Initially, responses on either lever are considered correct responses and are rewarded with reinforcement. […]

Male Fischer F-344 rats = assay: Stress-induced hyperthermia (in rat); assay type: in vivo; details: for stress-induced hyperthermia (T2−T1): in °C
[1] = Study 1, 1, 3 and 10 mg/kg p.o.

In the case of `Cc1cc(C)cc([C@@H]2CCCN2Cc2ccc(Oc3ccc(C(N)=O)cc3F)cc2)c1` (single isomer, unassigned) [Example 1A], the breakpoint (P rats) is reported as “reduced”, the “number of active lever responses” value (P rats) is reported as “reduced” and the “quantity of ethanol consumed” value (P rats) is reported as “reduced”. The “stress-induced hyperthermia (T2−T1)” value (Male Fischer F-344 rats; Study 1, 1 mg/kg po, 60 min pretreatment, body temperature in degrees C.) was 0.84±0.07, the “stress-induced hyperthermia (T2−T1)” value (Male Fischer F-344 rats; Study 1, 3 mg/kg po, 60 min pretreatment) was 0.80±0.10 and the “stress-induced hyperthermia (T2−T1)” value (Male Fischer F-344 rats; Study 1, 10 mg/kg po, 60 min pretreatment) was 0.75±0.11. The “baseline core body temperature” value (Male Fischer F-344 rats; [1]) was “not affected”, the “reduction in stress-induced hyperthermia (T2−T1), in words” value (Male Fischer F-344 rats; [1]) was “dose-dependent, but non-significant, reduction” and the “stress-induced hyperthermia (T2−T1)” value (Male Fischer F-344 rats; Study 2, 10 mg/kg Example 1A alone, po) was 0.74±0.04. For the same compound, the “baseline core body temperature” value (Male Fischer F-344 rats; Study 2, 1, 3 and 10 mg/kg p.o. together with 1 mg/kg chlordiazepoxide) was “not affected” and the “reduction in stress-induced hyperthermia, in words” value (Male Fischer F-344 rats; Study 2, together with 1 mg/kg chlordiazepoxide, significant reduction p<0.05) was “increases the efficacy of a sub-threshold dose of chlordiazepoxide”.
